Patent US11299515B2, “Optimized peptides for targeting human nerves and their use in image guided surgery, diagnostics and therapeutic” (The Regents of the University of California, priority 2017, dated 2022)
Entries after “also recorded” stand apart in the source; their conditions may differ. Residues, ends and D or L forms follow the SMILES beside them. *: point of attachment. Fluorescein(5-Mal) = O=C1OC2(c3ccc(O)cc3Oc3cc(O)ccc32)c2ccc(N3C(=O)CC(*)C3=O)cc21

Tests used:
sciatic nerve = type: in vivo, mice; conditions: 450 nmols i.v., SKH1 mice
Protocol: Either 150 or 450 nmoles of fluorescein labeled synthetic peptides were injected intravenously into mice. After a 2 hour waiting period for washout of nonspecific binding, mice were anesthetized and skin incisions were made over the dorsal surface of the hind legs to expose the sciatic nerve. Brightfield and fluorescent images were obtained with a dissecting microscope using Metamorph software (FIG. 1). Quantitation of fluorescence of nerves and adjacent non-nerve tissue was performed with Image J (FIG. 2). Peptides were also topically applied to human nerve sections. Nerves were freshly frozen in OTC prior to sectioning. Peptides were topically applied at concentration at 300 uM with images being shown for HNP401, HNP402, HNP404 and previous reported nerve binding peptides NP41 (FIG. 3)). Also shown are images for variants HNP301 ([…]) and NP124. NP713 was also tested and has not reported in a publication. NP713, is a derivative of NP41 with sequence […] that was enriched after 7 rounds of selection against mouse tissue, and was also found after 4 rounds of selection against human tissue. […] All D-amino acid controls for NP-41 and NP713 and non peptide conjugated carboxyfluorescein, are also shown. […] HNP401 was then tested for labeling of rat sciatic and rat prostate cavernosal nerve in-vivo. […] FIGS. 6 and 7 show in-vivo labeling of rat prostate cavernosal nerve with comparison to white light visualization.
Following anesthesia with intra-peritoneal injection of ketamine (80 mg/kg) and midazolam (40 mg/kg), FAM-NP41 or its variants were administered into mice retro-orbitally. After a washout period of 2-4 hours, the animals were anesthetized with ketamine (50 mg/ml) and xylazine (20 mg/ml). The bladder and prostate were exposed through a midline abdominal incision. The autonomic nerve along the cavernosal vessel in the prostate was imaged and recorded using a custom-made surgical imaging system. This system is a modified from Olympus MVX10 scope capable of hi-resolution fluorescence, RGB reflectance and realtime overlay with zoom from 0.6 to 5.7 cm field of view. Image) was used for quantitative analysis of nerve contrast for each peptide dye conjugate tested. Images of autonomic nerve in prostate were selected from the recorded files and magnified 300-400% prior to selection of ROI and measurement. Nerves and adjacent non-nerve tissues ROIs were hand-selected using polygonal selection tool at the same location from both of reflectance and fluorescence images. The mean and standard deviation of the pixel intensities within the selected areas were compared for nerves (mean=In, SD=σn) and adjacent background tissue (mean=Ib, SD=σb). Nerve to non-nerve contrast was calculated after background subtraction with formula |In−Ib|/(σn^2+σm^2)^0.5. For imaging the nerves in the prostate gland of male rats peptide dye conjugate were injected retro-orbitally. FAM-HNP401 was injected at a concentration of 13 mgs/kg followed by imaging after 15 minutes or alternatively a dose of 52 mgs/kg was used with imaging after 3 hours. Live animal surgery was performed under a ketamine-xylazine cocktail according to IACUC protocol. Sterile technique was used to expose the prostate; bladder was drained with a small syringe and sutured. The surgical field was washed with sterile saline prior to imaging. Mann-Whitney test was used to analyze data for both mice and rats to compare nerve intensity and nerve to non-nerve contrast between white light reflectance and fluorescence.

in vivo = conditions: male, SKH, mouse, whole blood, iv, 100 nmol
Protocol: Five 8-week-old SKH male mice were injected intravenously with 100 nmol [10.75 mg/kg for 25 gm mouse] of FAM-HNP401 in 100 μl of sterile water. Prior to blood draw mice were anesthetized with a 1:1 cocktail of ketamine: midazolam. Tail pricks were performed at 1 min, 10 min, 20 min, 30 min, 1 hr, and 2 hrs after injection to collect 5 μl whole blood which was dissolved in 100 μl Agilent ICP-MS tuning buffer. Samples were centrifuged and equal volume of supernatants were analyzed using a Tecan fluorescence plate reader.

mouse facial nerve = test: Topical application on ex-vivo mouse facial nerve with surrounding muscle; type: binding; conditions: 375 and 100 μM topical
[1] = Stability in ex-vivo human plasma (LC-MS); conditions: 37° C., 5 min vs 2 hours
Protocol: An equal volume of 1:1 acetonitrile:water with 2% acetic acid is added to precipitate the protein matter, supernatant is extracted for analysis by LC-MS on a C18 reverse phase column with gradient of 9:1 H2O+0.05% TFA:Acetonitrile+0.05% TFA to 1:9 H2O+0.05% TFA:Acetonitrile+0.05% TFA in 20 min.
The bladder was drained with a syringe and sutured to avoid spillage and contamination around prostate. […] Stability of FAM-HNP401 in human plasma at 5 minutes and 2 hours was determined by incubation of peptide dye conjugate in human serum prior to analysis by mass spectrometry.

[2] = tested on: autonomic (cavernosal) nerves from human prostate gland; test: Topical application on autonomic nerves from human prostate gland; type: binding; conditions: 100 μM topical, two patients
Protocol: FAM-HNP401 and FAM-NP41 were then tested topically for binding to autonomic nerves, isolated from excised prostate glands of two human patients (FIGS. 12 and 13). […] Labelled fiber were confirmed as nerve using anti-neurofilament antibody SMI312 (red) and DAPI (blue) to show nuclear labeling (FIG. 12C). H&E staining was also done to confirm label tissue as nerve (FIG. 12D). Similar staining was obtained for peripheral sensory anti-brachial cutaneous nerve isolated from a human arm (FIGS. 12E-H).
FAM-HNP401 and FAM-NP41 were tested for binding to autonomic nerves, isolated from the prostate glands of two human patients (FIGS. 19 and 29). […] Quantitation was not done because only 2 patient samples were available for testing as nerve resection during radical prostatectomy is only performed in instances of gross capsular invasion. Labelled fibers were confirmed as nerve using anti-neurofilament antibody SMI312 (red) with DAPI (blue) to show nuclear labeling (FIG. 19C). H&E staining also confirmed label tissue as nerve by histology (FIG. 19D). […] Similar staining using FAM-HNP401 was obtained for another sensory nerve (anti-brachial cutaneous) isolated from human arm showing the broad nerve binding activity of HNP401 (FIGS. 19E-H).
Human sural nerve, antebrachial nerve and laryngeal nerve and temporalis muscle were obtained under IRB protocol number 130837 for Dr. Quyen Nguyen. […]

[3] = Mass spectroscopy analysis of urine after injection of nerve binding peptides

CC(=O)N[C@@H](CO)C(=O)NCC(=O)N[C@@H](CCC(N)=O)C(=O)N[C@H](C(=O)N1CCC[C@H]1C(=O)N[C@@H](Cc1c[nH]c2ccccc12)C(=O)N[C@@H](CCC(=O)O)C(=O)N[C@@H](CCC(=O)O)C(=O)N1CCC[C@H]1C(=O)N[C@@H](Cc1ccc(O)cc1)C(=O)N[C@@H](Cc1ccc(O)cc1)C(=O)N[C@H](C(=O)N[C@H](C(=O)N[C@@H](CCCCN)C(=O)N[C@@H](CCCCN)C(=O)N[C@@H](CO)C(=O)N[C@@H](CO)C(=O)NCC(=O)NCC(=O)N[C@@H](CSC1CC(=O)N(c2ccc3c(c2)C(=O)OC32c3ccc(O)cc3Oc3cc(O)ccc32)C1=O)C(N)=O)C(C)C)C(C)C)C(C)C (some centres unmarked) [FAM-HNP401] (Ac-SGQVPWEEPYYVVKKSSGGC(Fluorescein(5-Mal))-NH2; N-terminus and C-terminus assumed)
signal intensity for in-vivo binding to mouse sciatic nerve compared to FAM-NP41 (sciatic nerve): 2.3 ×
sciatic nerve fluorescent intensity compared to NP41 (sciatic nerve; 2 h post injection): 2.3 fold
nerve to surrounding muscle contrast (sciatic nerve; mouse thigh): 5.79±0.81
half-life (in vivo): 30 min
labeling of mouse facial nerve versus surrounding muscle (mouse facial nerve): poor contrast; also recorded: did not perform as well as FAM-NP41
stability in human plasma [1]: remain intact at 2 hours; also recorded: stable
fluorescent signal in human autonomic nerves compared to FAM-NP41 [2]: significantly higher fluorescent signal
metabolism (species detected in urine) [3]: partially metabolized
